pIC50: −log10 of the molar value. Values joined by “and” are separate entries in the source; they are usually repeats but may differ in a detail not shown here. Equal values may be shown once.
Tested on: 496974-208-R-J2-PDC complex spheroids, growth % test/control
Test: Anticancer human tumor 496974-208-R-J2-PDC patient-derived pancreatic carcinoma cell line growth inhibition [CLK]
Conditions: for pIC50: curve of first compound; for viability, T/C: stronger effect = lower value
Procedure, shortened: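 Multi-cell-type spheroids combined patient-derived tumor cells with HUVEC endothelial cells and human mesenchymal stem cells. Paired agents were dosed in half-log steps down from about clinical Cmax, or from 10 microM where Cmax was unknown.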

[1] = second compound 0.0316 µM, first compound 0.0316 µM
[2] = second compound 0.0316 µM, first compound 0.1 µM
[3] = second compound 0.0316 µM, first compound 0.316 µM
[4] = second compound 0.0316 µM, first compound 1 µM
[5] = second compound 0.0316 µM, first compound 3.16 µM
[6] = second compound 0.0316 µM, first compound 10 µM
[7] = second compound 0.1 µM, first compound 0.0316 µM
[8] = second compound 0.1 µM, first compound 0.1 µM
[9] = second compound 0.1 µM, first compound 0.316 µM
[10] = second compound 0.1 µM, first compound 1 µM
[11] = second compound 0.1 µM, first compound 3.16 µM
[12] = second compound 0.1 µM, first compound 10 µM
[13] = second compound 0.316 µM, first compound 0.0316 µM
[14] = second compound 0.316 µM, first compound 0.1 µM
[15] = second compound 0.316 µM, first compound 0.316 µM
[16] = second compound 0.316 µM, first compound 1 µM
[17] = second compound 0.316 µM, first compound 3.16 µM
[18] = second compound 0.316 µM, first compound 10 µM
[19] = second compound 1 µM, first compound 0.0316 µM
[20] = second compound 1 µM, first compound 0.1 µM
[21] = second compound 1 µM, first compound 0.316 µM
[22] = second compound 1 µM, first compound 1 µM
[23] = second compound 1 µM, first compound 3.16 µM
[24] = second compound 1 µM, first compound 10 µM
[25] = second compound 3.16 µM, first compound 0.0316 µM
[26] = second compound 3.16 µM, first compound 0.1 µM
[27] = second compound 3.16 µM, first compound 0.316 µM
[28] = second compound 3.16 µM, first compound 1 µM
[29] = second compound 3.16 µM, first compound 3.16 µM
[30] = second compound 3.16 µM, first compound 10 µM
[31] = second compound 10 µM, first compound 0.0316 µM
[32] = second compound 10 µM, first compound 0.1 µM
[33] = second compound 10 µM, first compound 0.316 µM
[34] = second compound 10 µM, first compound 1 µM
[35] = second compound 10 µM, first compound 3.16 µM
[36] = second compound 10 µM, first compound 10 µM
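Further: spheroids exposed to the drugs for 7 days before readout.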
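Wherever viability, T/C is given: 100% = DMSO vehicle control wells.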

`CC(=O)O[C@H]1C(=O)[C@@]2(C)[C@H]([C@H](OC(=O)c3ccccc3)[C@]3(O)C[C@H](OC(=O)[C@H](O)[C@@H](NC(=O)c4ccccc4)c4ccccc4)C(C)=C1C3(C)C)[C@]1(OC(C)=O)CO[C@@H]1C[C@@H]2O` + CN1CCN(c2cc(C(=O)Nc3cc4cc(-c5cnn(C)c5)ccc4cn3)ccn2)CC1 gave a pIC50 (second compound 0.0316 µM) greater than 7.50, a pIC50 (second compound 0.1 µM) greater than 7.50 and a pIC50 (second compound 0.316 µM) greater than 7.50. For the same compound, the pIC50 (second compound 1 µM) was greater than 7.50, the pIC50 (second compound 3.16 µM) was greater than 7.50 and the pIC50 (second compound 10 µM) was greater than 7.50. It also gave a viability, T/C [1] of 35.9%, a viability, T/C [2] of 29.4% and a viability, T/C [3] of 33.5%. The viability, T/C [4] was 29.2%, the viability, T/C [5] was 31.5% and the viability, T/C [6] was 27.9%. It also gave a viability, T/C [7] of 29.4%, a viability, T/C [8] of 25.9% and a viability, T/C [9] of 27.7%. The viability, T/C [10] was 29.5%, the viability, T/C [11] was 24.8% and the viability, T/C [12] was 23.7%. For the same compound, the viability, T/C [13] was 5.33%, the viability, T/C [14] was 4.57% and the viability, T/C [15] was 5.74%. For the same compound, the viability, T/C [16] was 4.55%, the viability, T/C [17] was 5.22% and the viability, T/C [18] was 4.68%. It also gave a viability, T/C [19] of 0.41%, a viability, T/C [20] of 0.53% and a viability, T/C [21] of 0.5%. For the same compound, the viability, T/C [22] was 0.41%, the viability, T/C [23] was 0.36% and the viability, T/C [24] was 0.37%. For the same compound, the viability, T/C [25] was 0.58%, the viability, T/C [26] was 0.77% and the viability, T/C [27] was 2.07%. For the same compound, the viability, T/C [28] was 0.54%, the viability, T/C [29] was 0.58% and the viability, T/C [30] was 0.34%. For the same compound, the viability, T/C [31] was 0.23%, the viability, T/C [32] was 0.29% and the viability, T/C [33] was 0.24%. The viability, T/C [34] was 0.25%, the viability, T/C [35] was 2.61% and the viability, T/C [36] was 0.28%.
With `COC1C=CCC(C)C(C)S(=O)(=O)NC(=O)c2ccc3c(c2)N(CC2CCC21)CC1(CCCc2cc(Cl)ccc21)CO3` (configuration not stated) + CNC(=O)c1ccc(Nc2nc(OC3CCCC3)c3c(-c4ccc5nc(C)oc5c4)c[nH]c3n2)c(OC)c1 the pIC50 (second compound 0.0316 µM) was 5.29, the pIC50 (second compound 0.1 µM) was 5.46 and the pIC50 (second compound 0.316 µM) was 6.72. It also gave a pIC50 (second compound 1 µM) of 7.28, a pIC50 (second compound 3.16 µM) of 7.39 and a pIC50 (second compound 10 µM) of 7.39. It also gave a viability, T/C [1] of 103%, a viability, T/C [2] of 60.8% and a viability, T/C [3] of 87.7%. It also gave a viability, T/C [4] of 71.9%, a viability, T/C [5] of 70% and a viability, T/C [6] of 26.3%. It also gave a viability, T/C [7] of 76.7%, a viability, T/C [8] of 55.6% and a viability, T/C [9] of 69.1%. The viability, T/C [10] was 60.2%, the viability, T/C [11] was 53.1% and the viability, T/C [12] was 29.7%. The viability, T/C [13] was 50.7%, the viability, T/C [14] was 57.1% and the viability, T/C [15] was 46.9%. The viability, T/C [16] was 41.3%, the viability, T/C [17] was 38.1% and the viability, T/C [18] was 49.9%. For the same compound, the viability, T/C [19] was 59.7%, the viability, T/C [20] was 36.7% and the viability, T/C [21] was 39.8%. The viability, T/C [22] was 34.4%, the viability, T/C [23] was 38% and the viability, T/C [24] was 30.6%. The viability, T/C [25] was 53.5%, the viability, T/C [26] was 36.3% and the viability, T/C [27] was 35%. For the same compound, the viability, T/C [28] was 33%, the viability, T/C [29] was 33.3% and the viability, T/C [30] was 29.7%. The viability, T/C [31] was 53.9%, the viability, T/C [32] was 36.8% and the viability, T/C [33] was 34.2%. It also gave a viability, T/C [34] of 31.6%, a viability, T/C [35] of 30.1% and a viability, T/C [36] of 24.1%.
For `Nc1ccn(C2OC(CO)C(O)C2(F)F)c(=O)n1` (configuration not stated), the viability, T/C (compound 0.0316 µM) was 89.3% and 93.5%, the viability, T/C (compound 0.1 µM) was 67.2% and 76.4% and the viability, T/C (compound 0.316 µM) was 57.7% and 72.4%. The viability, T/C (compound 1 µM) was 44.9% and 58%, the viability, T/C (compound 3.16 µM) was 50.7% and 63.3% and the viability, T/C (compound 10 µM) was 44.3% and 53.2%.
In the case of `COc1cccc2c1C(=O)c1c(O)c3c(c(O)c1C2=O)CC(O)(C(=O)CO)CC3OC1CC(N)C(O)C(C)O1` (configuration not stated) + CNC(=O)c1ccc(Nc2nc(OC3CCCC3)c3c(-c4ccc5nc(C)oc5c4)c[nH]c3n2)c(OC)c1, the pIC50 (second compound 0.0316 µM) was 6.73, the pIC50 (second compound 0.1 µM) was 6.75 and the pIC50 (second compound 0.316 µM) was 6.72. For the same compound, the pIC50 (second compound 1 µM) was 6.94, the pIC50 (second compound 3.16 µM) was 6.99 and the pIC50 (second compound 10 µM) was 7.27. The viability, T/C [1] was 70.4%, the viability, T/C [2] was 62.2% and the viability, T/C [3] was 38.3%. The viability, T/C [4] was 3.78%, the viability, T/C [5] was 0.62% and the viability, T/C [6] was 0.49%. The viability, T/C [7] was 67.5%, the viability, T/C [8] was 66.1% and the viability, T/C [9] was 33.8%. The viability, T/C [10] was 3.28%, the viability, T/C [11] was 0.77% and the viability, T/C [12] was 2.66%. It also gave a viability, T/C [13] of 68%, a viability, T/C [14] of 68.3% and a viability, T/C [15] of 36.2%. For the same compound, the viability, T/C [16] was 3.12%, the viability, T/C [17] was 0.68% and the viability, T/C [18] was 0.3%. For the same compound, the viability, T/C [19] was 68%, the viability, T/C [20] was 52.9% and the viability, T/C [21] was 22.5%. It also gave a viability, T/C [22] of 1.15%, a viability, T/C [23] of 2.86% and a viability, T/C [24] of 3.97%. For the same compound, the viability, T/C [25] was 57.9%, the viability, T/C [26] was 50.7% and the viability, T/C [27] was 18.4%. It also gave a viability, T/C [28] of 1.62%, a viability, T/C [29] of 0.55% and a viability, T/C [30] of 0.42%. The viability, T/C [31] was 57.8%, the viability, T/C [32] was 40.5% and the viability, T/C [33] was 16.8%. The viability, T/C [34] was 1.34%, the viability, T/C [35] was 0.84% and the viability, T/C [36] was 0.85%.
